Results: US11020364B2, “Palmitoleic acid for use in inhibiting the attachment of sea lice to fish” (INSTITUT DE RECHERCHE EN SEMIOCHIMIE ET ETHOLOGIE APPLIQUEE, priority 2014, dated 2021)
Where “and” joins values, the source holds several entries; their conditions need not be identical. Identical values can stand only once.

Key:
[1] = test system: Lepeophtheirus salmonis copepodids; experiment: Infestation test with isomer in Atlantic salmon (Example 7); assay type: in vivo
Procedure: The aim of this example was to test the efficacy of an isomer of Sea Lice Copepodids Attachment Inhibiting Semiochemical (SCAIS) as an inhibitor of the infestation behavior of Lepoephtheirus salmonis copepodids in Atlantic salmon (Salmon salar). The test was realized using 4 rounds of 4 fish, eight of which were treated with trans-9-hexadecenoic acid and the other eight used as a control. For each round 4 fish were tested; i.e., 2 treated fish and 2 controls. To be included in the study the smolts had to have a body weight between 70 g and 150 g and the copepodits had to be able to swim actively. If the smolts had disease, loss of scales, fin damage, cataracts and/or swam abnormally they were not used in the study. If the copepodits were immobile after stimulation, they were rejected from the study. For each round 4 fish are caught and introduced into four 2-liter flat beakers supplied with 1.75 liters of seawater. The treated fish had 6 ppm of trans-9-hexadecenoic acid placed in their seawater, while in the control only seawater was used. 0.52 ml of the treatment or control were directly injected into 1.75 liters of seawater. The 4 fish were bathed in this solution for 10 minutes. The fish were then transferred to another 3.5 liter beaker supplied with 3.5 liters of seawater treated either with 3 ppm of trans-9-hexadecenoic acid or a control of simply seawater. 0.52 ml of the treatment of control were directly injected into 3.5 liters of seawater. The flat beakers were equipped with a valve such that 0.875 liters were emptied from the flat beaker. When the fish were introduced into the beakers, the valves were turned on. Ten minutes after the valves were turned on, the beakers were supplied with either 0.875 liters of the treatment of trans-9-hexadecenoic acid or 0.875 liters of the control of seawater. Ten minutes thereafter (20 minutes after the introduction of the fish into the beakers), the valves were turned off and 60 copepodits per fish were injected into each flat beaker. Five minutes later (25 minutes after introduction of the fish into the beakers), the valves were turned on. Ten minutes later (35 minutes after introduction of the fish into the beakers) each beaker was supplied with either 0.875 liters of trans-9-hexadecenoic acid or 0.875 liters of the control of seawater. Ten minutes later (45 minutes after introduction of the fish into the beakers) each beaker was supplied with either 0.875 liters of trans-9-hexadecenoic acid or 0.875 liters of the control of seawater. […] The content of plastic bag was then emptied above a filter and the number of copepodits was then counted on each filter using a magnifying glass. […] Data was analyzed using 9.4 SAS software (2002-2012 by SAS Institute Inc., Cary, N.C., U.S.A.). […]

copepodits = experiment: Infestation test of smolts with copepodits (Examples 4 to 6); assay type: in vivo, Lepeophtheirus salmonis
Procedure: This test exposed young salmons (smolts weighting almost 70 grams) to a high density group of copepodits during 45 minutes in a testing device, which consisted of four 23 cm diameter tanks, with an outflow. […] Light can modify the behavior of the copepodits which have phototropism. Each tank received a smolt for 45 min (FIG. 6). The copepodits were first fished out of their rearing tank and counted on a stereomicroscope. Four infesting doses of copepodits, containing 60 copepodits each, were prepared for each run of the test. The smolts were placed in a tank containing the treatment solution (or the placebo), which concentration in active substance was 6 ppm. This bath lasted for 10 minutes. Then the smolts were placed in a tank where they were kept in 3 ppm of the same treatment (product or placebo) used in the previous bath to begin the testing. The purpose of this process was to prevent any dramatic decrease in the concentration of the active product on their skin. During the first 10 minutes, the outflow was open and the tent was closed. At that moment each tank was refilled to reach the initial volume of oxygenated liquid (refilled with the same solution, product or placebo). The outflow was then closed for 5 minutes and the infesting dose was introduced in the tank. Then the outflow was opened and stayed opened for 30 minutes with a refill every 10 minutes (without opening the tent). After 45 minutes of exposure to the copepodits, the smolts were euthanized by administration of a toxic dose of anaesthetic agent Benzoake, at a concentration of 10 times the normal dose of 30 to 40 mg/l. The dead fish were placed in a plastic bag in which they were rubbed and rinsed with sea water. The skin of the fish was rubbed with a metallic spoon, to remove all the possible copepodits attached on it, as shown in FIG. 7. Each fish was washed thus detaching all of the copepodits and shells from the fish skin. The collected liquid from the washing was filtered to count the parasites. The copepodits were counted on the filter to obtain the number of copepodites on the outer body of the fish. The gills were then dissected to count the number of copepodits on the gills. The first phase of the test compared the number of copepodits on the body and on the gills, between replicas of the test. The purpose of this phase was to validate the test and measure its standard deviation. The second phase of the test compared the number of copepodits (abbreviated cops in the Tables below) on the body and on the gills, between treated smolts and reference smolts, as a control, which were just bathed in seawater plus ethyl alcohol for the five solutions. The same test as in Example 4 was repeated using palmitoleic acid. […] The same experiment was undertaken as described in Example 4.

[2] = test system: Lepeophtheirus salmonis copepodids; experiment: Infestation test with water dispersible tablets (Example 9); assay type: in vivo
Excerpt: The purpose of this example was to assess the efficacy of the sea lice copepodits attachment inhibiting semiochemical (SCAIS), continuously released by water dispersible tablets, on the infestation behaviour of Lepeophtheirus salmonis copepodids in Atlantic salmon smolts (Salmo salar).
72 Atlantic salmon (Salmo salar) in the smolt stage having a weight around 90 g and of the origin SALMAR® (Daugstad 6392 Vikebukt, Norway) were used in this study. 2,400 copepodits used were from the species Lepeophtheirus salmonis origin Ilab® (Bergen, Norway).
Infestation tests were measured at 1 hour, 24 hours, 72 hours and 120 hours after application of the treatment. Blood tests were undertaken at 0 hours, 1 hour, 24 hours, 72 hours and 120 hours after treatment.
[…] were used and the study was conducted in two parallel groups of Atlantic salmon smolts, one group was treated with the sea lice copepodits attachment inhibiting semiochemical tablets of cis-9-hexdecenoic acid, which were placed in a string bag half way down where the water resides in the rearing tank and the other group was the control using only ethyl alcohol.
The infestation test, carried out at 1 hour, 24 hours, 72 hours and 120 hours after application of the treatment was performed in the following manner. […]

[3] = 8 treated fish, 6 ppm then 3 ppm
[4] = mean of replicas, 6 ppm bath then 3 ppm, 60 copepodits, 45 minutes

Row | Compound | Nb copepodits, Mean [1, 3] | Nb copepodits, Median [1, 3] | Number of copepodits ([1]; single fish, 6 ppm bath 10 minutes then 3 ppm, 60 copepodits per fish) | effect on number of copepodits attached in Atlantic salmons (in words) ([1]; vs seawater control) | Number of copepodits attached in the gills, Mean (copepodits; Example 6, Treated salmons) | Number of copepodits attached in the gills, Median (copepodits; Example 6, Treated salmons) | Number of copepodits attached to body, Mean (copepodits; Example 6, Treated salmons) | Number of copepodits attached to body, Median (copepodits; Example 6, Treated salmons) | reduction in number of copepodits attached on the body of the salmon (in words) (copepodits; Example 6, vs control salmons and control cods) | effect on attachment of copepodits on smolts (in words) (copepodits; Examples 4 and 5, vs reference smolts in seawater plus ethyl alcohol) | Cop on body, mean (copepodits; [4]) | Cop on gills, mean (copepodits; [4]) | Cop on body (copepodits; single replica (smolt), 6 ppm bath 10 minutes then 3 ppm, 60 copepodits, 45 minutes) | mean number of copepodits attached ([2]; treatment group, water dispersible tablets in rearing tank, 60 copepodits per fish, preliminary analysis) | protection in infestation tests (in words) ([2]; water dispersible tablets, 60 copepodits per fish in closed 3.5 liter tank)
1 | CCCCCC/C=C/CCCCCCCC(=O)O [SCAIS^iso, trans-9-hexadecenoic acid] | 10 | 9 | 8 | significant effect on the number of copepodits attached | – | – | – | – | – | – | – | – | – | – | –
2 | CCCCCC/C=C\CCCCCCCC(=O)O [palmitoleic acid, cis-9-hexadecenoic acid] | – | – | – | – | 2.375 | 2.5 | 6.25 | 6 | highly significant reduction | important reduction of the infestation | 8.0 | 2.8 | 6 and 11 and 7 and 8 | 10.6 | significant protection
